Results reported in PubChem BioAssay AID1918939 (Molecular Pharmacology Branch, DTP, NCI, 2023).

Test system: 653999-131-R-J2-PDC complex spheroid viability
Assay: Anticancer human tumor 653999-131-R-J2-PDC patient-derived lung adenocarcinoma cell line growth inhibition
Settings: for IC50: curve of first compound; for viability, T/C: stronger effect = lower value
Procedure, shortened: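 Drug combinations with the LSD1 inhibitor iadademstat tested on tumor cells co-cultured as spheroids with endothelial cells and mesenchymal stem cells. Concentrations descended in half-log increments from clinical Cmax or 10 microM.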

[1] = second compound 0.1 µM, first compound 0.0316 µM
[2] = second compound 0.1 µM, first compound 0.1 µM
[3] = second compound 0.1 µM, first compound 0.316 µM
[4] = second compound 0.1 µM, first compound 1 µM
[5] = second compound 0.1 µM, first compound 3.16 µM
[6] = second compound 0.1 µM, first compound 10 µM
[7] = second compound 0.316 µM, first compound 0.0316 µM
[8] = second compound 0.316 µM, first compound 0.1 µM
[9] = second compound 0.316 µM, first compound 0.316 µM
[10] = second compound 0.316 µM, first compound 1 µM
[11] = second compound 0.316 µM, first compound 3.16 µM
[12] = second compound 0.316 µM, first compound 10 µM
[13] = second compound 1 µM, first compound 0.0316 µM
[14] = second compound 1 µM, first compound 0.1 µM
[15] = second compound 1 µM, first compound 0.316 µM
[16] = second compound 1 µM, first compound 1 µM
[17] = second compound 1 µM, first compound 3.16 µM
[18] = second compound 1 µM, first compound 10 µM
[19] = second compound 3.16 µM, first compound 0.0316 µM
[20] = second compound 3.16 µM, first compound 0.1 µM
[21] = second compound 3.16 µM, first compound 0.316 µM
[22] = second compound 3.16 µM, first compound 1 µM
[23] = second compound 3.16 µM, first compound 3.16 µM
[24] = second compound 3.16 µM, first compound 10 µM
[25] = second compound 10 µM, first compound 0.0316 µM
[26] = second compound 10 µM, first compound 0.1 µM
[27] = second compound 10 µM, first compound 0.316 µM
[28] = second compound 10 µM, first compound 1 µM
[29] = second compound 10 µM, first compound 3.16 µM
[30] = second compound 10 µM, first compound 10 µM
[31] = second compound 0.1 µM, first compound 0.00949 µM
[32] = second compound 0.1 µM, first compound 0.03 µM
[33] = second compound 0.1 µM, first compound 0.0949 µM
[34] = second compound 0.1 µM, first compound 0.3 µM
[35] = second compound 0.316 µM, first compound 0.00949 µM
[36] = second compound 0.316 µM, first compound 0.03 µM
[37] = second compound 0.316 µM, first compound 0.0949 µM
[38] = second compound 0.316 µM, first compound 0.3 µM
[39] = second compound 1 µM, first compound 0.00949 µM
[40] = second compound 1 µM, first compound 0.03 µM
[41] = second compound 1 µM, first compound 0.0949 µM
[42] = second compound 1 µM, first compound 0.3 µM
[43] = second compound 3.16 µM, first compound 0.00949 µM
[44] = second compound 3.16 µM, first compound 0.03 µM
[45] = second compound 3.16 µM, first compound 0.0949 µM
[46] = second compound 3.16 µM, first compound 0.3 µM
[47] = second compound 10 µM, first compound 0.00949 µM
[48] = second compound 10 µM, first compound 0.03 µM
[49] = second compound 10 µM, first compound 0.0949 µM
[50] = second compound 10 µM, first compound 0.3 µM
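Further: spheroids exposed to agents for seven days before readout.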

`CC1(C)CCC(CN2CCN(c3ccc(C(=O)NS(=O)(=O)c4ccc(NCC5CCOCC5)c([N+](=O)[O-])c4)c(Oc4cnc5[nH]ccc5c4)c3)CC2)=C(c2ccc(Cl)cc2)C1` + NC1CCC(NC2CC2c2ccccc2)CC1 was tested, and the IC50 (second compound 0.1 µM) was 9330 nM, the IC50 (second compound 0.316 µM) was 8460 nM and the IC50 (second compound 1 µM) was 8730 nM. The IC50 (second compound 3.16 µM) was 7790 nM, the IC50 (second compound 10 µM) was > 10000 nM and the viability, T/C [1] was 93.5%. For the same molecule, the viability, T/C [2] was 82.4%, the viability, T/C [3] was 86.9% and the viability, T/C [4] was 100%. The viability, T/C [5] was 94.8%, the viability, T/C [6] was 47.3% and the viability, T/C [7] was 76.8%. For the same molecule, the viability, T/C [8] was 89.7%, the viability, T/C [9] was 97.7% and the viability, T/C [10] was 92%. It also gave a viability, T/C [11] of 92.2%, a viability, T/C [12] of 43.2% and a viability, T/C [13] of 77%. For the same molecule, the viability, T/C [14] was 83.4%, the viability, T/C [15] was 97.2% and the viability, T/C [16] was 96.5%. The viability, T/C [17] was 73.7%, the viability, T/C [18] was 46.8% and the viability, T/C [19] was 97.9%. The viability, T/C [20] was 88.1%, the viability, T/C [21] was 102% and the viability, T/C [22] was 94.2%. The viability, T/C [23] was 74.5%, the viability, T/C [24] was 43.2% and the viability, T/C [25] was 89%. For the same molecule, the viability, T/C [26] was 84.2%, the viability, T/C [27] was 87.4% and the viability, T/C [28] was 87.3%. It also gave a viability, T/C [29] of 78.1% and a viability, T/C [30] of 50%.
For `CC1COCCN1c1cc(C2(S(C)(=N)=O)CC2)nc(-c2ccnc3[nH]ccc23)n1` (stereo not given) + NC1CCC(NC2CC2c2ccccc2)CC1, the IC50 (second compound 0.1 µM) was 736 nM, the IC50 (second compound 0.316 µM) was 832 nM and the IC50 (second compound 1 µM) was 840 nM. It also gave an IC50 (second compound 3.16 µM) of 674 nM, an IC50 (second compound 10 µM) of 698 nM and a viability, T/C [1] of 104%. It also gave a viability, T/C [2] of 81.3%, a viability, T/C [3] of 63.7% and a viability, T/C [4] of 46.4%. It also gave a viability, T/C [5] of 32.8%, a viability, T/C [6] of 34.1% and a viability, T/C [7] of 94.1%. For the same molecule, the viability, T/C [8] was 80.1%, the viability, T/C [9] was 73.8% and the viability, T/C [10] was 45.5%. The viability, T/C [11] was 30%, the viability, T/C [12] was 31% and the viability, T/C [13] was 102%. For the same molecule, the viability, T/C [14] was 81%, the viability, T/C [15] was 67.4% and the viability, T/C [16] was 46.3%. It also gave a viability, T/C [17] of 34.1%, a viability, T/C [18] of 28.2% and a viability, T/C [19] of 101%. It also gave a viability, T/C [20] of 89.4%, a viability, T/C [21] of 68.9% and a viability, T/C [22] of 39.1%. For the same molecule, the viability, T/C [23] was 33.6%, the viability, T/C [24] was 32.3% and the viability, T/C [25] was 103%. For the same molecule, the viability, T/C [26] was 66.4%, the viability, T/C [27] was 72.5% and the viability, T/C [28] was 43.8%. It also gave a viability, T/C [29] of 30% and a viability, T/C [30] of 27.4%.
`CCN(c1cc(-c2ccc(CN3CCOCC3)cc2)cc(C(=O)NCc2c(C)cc(C)[nH]c2=O)c1C)C1CCOCC1` + NC1CCC(NC2CC2c2ccccc2)CC1 was tested, and the IC50 (second compound 0.1 µM) was > 3000 nM, the IC50 (second compound 0.316 µM) was > 3000 nM and the IC50 (second compound 1 µM) was > 3000 nM. For the same molecule, the IC50 (second compound 3.16 µM) was > 3000 nM, the IC50 (second compound 10 µM) was > 3000 nM and the viability, T/C [31] was 97.1%. It also gave a viability, T/C [32] of 93%, a viability, T/C [33] of 98.2% and a viability, T/C [34] of 94.9%. It also gave a viability, T/C (second compound 0.1 µM, first compound 0.949 µM) of 80.8%, a viability, T/C (second compound 0.1 µM, first compound 3 µM) of 74.9% and a viability, T/C [35] of 80.6%. For the same molecule, the viability, T/C [36] was 88.9%, the viability, T/C [37] was 91.8% and the viability, T/C [38] was 80.9%. It also gave a viability, T/C (second compound 0.316 µM, first compound 0.949 µM) of 87.6%, a viability, T/C (second compound 0.316 µM, first compound 3 µM) of 72.2% and a viability, T/C [39] of 77.6%. The viability, T/C [40] was 101%, the viability, T/C [41] was 92.2% and the viability, T/C [42] was 76.3%. It also gave a viability, T/C (second compound 1 µM, first compound 0.949 µM) of 70.2%, a viability, T/C (second compound 1 µM, first compound 3 µM) of 78.8% and a viability, T/C [43] of 96.1%. For the same molecule, the viability, T/C [44] was 94.5%, the viability, T/C [45] was 108% and the viability, T/C [46] was 84%. For the same molecule, the viability, T/C (second compound 3.16 µM, first compound 0.949 µM) was 76.6%, the viability, T/C (second compound 3.16 µM, first compound 3 µM) was 83.9% and the viability, T/C [47] was 87.7%. It also gave a viability, T/C [48] of 84.9%, a viability, T/C [49] of 85.5% and a viability, T/C [50] of 76%. The viability, T/C (second compound 10 µM, first compound 0.949 µM) was 70% and the viability, T/C (second compound 10 µM, first compound 3 µM) was 82.4%.
In the case of `Nc1ncn(C2CC(O)C(CO)S2)c(=O)n1` (stereo not given) + NC1CCC(NC2CC2c2ccccc2)CC1, the IC50 (second compound 0.1 µM) is reported as > 300 nM, the IC50 (second compound 0.316 µM) is reported as > 300 nM and the IC50 (second compound 1 µM) is reported as > 300 nM. The IC50 (second compound 3.16 µM) was > 300 nM, the IC50 (second compound 10 µM) was > 300 nM and the viability, T/C (second compound 0.1 µM, first compound 0.000949 µM) was 83.8%. For the same molecule, the viability, T/C (second compound 0.1 µM, first compound 0.003 µM) was 109%, the viability, T/C [31] was 90.8% and the viability, T/C [32] was 74.8%. It also gave a viability, T/C [33] of 70.4%, a viability, T/C [34] of 50.6% and a viability, T/C (second compound 0.316 µM, first compound 0.000949 µM) of 86.6%. It also gave a viability, T/C (second compound 0.316 µM, first compound 0.003 µM) of 81.6%, a viability, T/C [35] of 87.5% and a viability, T/C [36] of 74.5%. It also gave a viability, T/C [37] of 58%, a viability, T/C [38] of 51.9% and a viability, T/C (second compound 1 µM, first compound 0.000949 µM) of 89.5%. It also gave a viability, T/C (second compound 1 µM, first compound 0.003 µM) of 94%, a viability, T/C [39] of 86.3% and a viability, T/C [40] of 78.7%. For the same molecule, the viability, T/C [41] was 67.8%, the viability, T/C [42] was 55.5% and the viability, T/C (second compound 3.16 µM, first compound 0.000949 µM) was 99%. The viability, T/C (second compound 3.16 µM, first compound 0.003 µM) was 92%, the viability, T/C [43] was 85.8% and the viability, T/C [44] was 81.3%. The viability, T/C [45] was 68.2%, the viability, T/C [46] was 54.7% and the viability, T/C (second compound 10 µM, first compound 0.000949 µM) was 88.9%. For the same molecule, the viability, T/C (second compound 10 µM, first compound 0.003 µM) was 112%, the viability, T/C [47] was 88.8% and the viability, T/C [48] was 84.7%. The viability, T/C [49] was 63.7% and the viability, T/C [50] was 58.6%.
